{"source": "patent US20240277695A1", "about": "“FOXO INHIBITORS FOR USE IN THE TREATMENT OF DISEASES CAUSED BY ABNORMAL PROCESSING OF TDP-43 AND/OR FUS PROTEINS” (Administración General de la Comunidad Autónoma de Euskadi, priority 2020, published 2024)", "key": {"primary ALS myoblasts": {"tested_on": "primary ALS myoblasts", "assay": "Glycolytic flux (ECAR) of primary ALS myoblasts", "assay_type": "cell-based, human", "text": "We looked at preliminary links between the findings in genetically-induced myoblasts and features of myoblasts from patients with ALS. To this aim, we cultured primary myoblasts obtained from muscle biopsies of two patients with ALS (patient 1 is sporadic [sALS] and patient 2 is familial [fALS]) and one control. […] Changes in TDP-43 localization were accompanied by an altered subcellular distribution of FoxO1, as reflected by increased levels of FoxO1 and FoxO3 in nuclei (FIG. 6A,C) and enhanced nuclear-to-cytosolic ratio in both patients (FIG. 6C). Remarkably, nuclear localizations of TDP-43 and FoxO1 were inversely associated in patient 2 (FIG. 6D).\nAs expected, alterations of FoxO1 in ALS myoblasts were accompanied by aberrant glycolytic flux, as indicated by lower ECAR values after addition of glucose to the media (FIG. 6F)."}, "[1]": {"tested_on": "Drosophila with motor neuron-specific (OK6 promoter) Tbph silencing", "assay": "Locomotor activity (climbing) assay in motor neuron-specific Tbph/Caz knockdown flies", "assay_type": "in vivo, Drosophila melanogaster", "settings": "30 μM, 20 days-old flies", "text": "FIG. 9. FOXO1inh rescues (AS1842856) impaired climbing capacity induced by motor neuron-specific knockdown of ALS-causing ortholog genes in Drosophila melanogaster. Represented two different models of Tbph silence (silencing two different locus of Tbph gene) and one Caz (FUS ortholog) A) Locomotor activity of motor neuron specific (OK6 promoter) Tbph silencing Drosophila melanogaster using iTbph(p(KK08354)) plasmid. Generated genotypes; UAS-Dicer2-+-OK6-GAL4 (control) and UAS-Dicer2-iTbph^p(KK08354)-OK6-GAL4 (iTbph^p(KK08354)). B) Locomotor activity of motor neuron specific (OK6 promoter) Tbph silencing Drosophila melanogaster using iTbph(attP40) plasmid.; UAS-Dicer2-+-OK6-GAL4 (control) and UAS-Dicer2-iTbph^(attP40)-OK6-GAL4 (iTbph^(attP40)). C) Locomotor activity of motor neuron specific (OK6 promoter) Tbph silencing Drosophila melanogaster using iCaz plasmid.; UAS-Dicer2-+-OK6-GAL4 (control) and UAS-Dicer2-iCaz-OK6-GAL4 (iCaz). Assays were performed at 20 days-old flies and repeated 5 times each tube (5 flies/tube). Data are expressed as the percentage of flies passing for each group.\nTwo-way ANOVA was performed together Bonferroni post-hoc multiple comparison (*p<0.05; **p<0.01; ***p<0.001) or T-test for two groups comparisons (*p<0.05; **p<0.01; ***p<0.001). Values are expressed as mean+SD.\nOne of the most important features of ALS is motor neuron degeneration. […]"}, "[2]": {"tested_on": "shTDP-43-treated myoblasts", "assay": "Glu/Asp and Glu/Gln metabolite ratios by HPLC-MS and 1H-NMR in silenced myoblasts", "assay_type": "cell-based, human", "settings": "30 nM", "text": "One of the key endogenous factors that keep glycolytic flux ongoing is cytosolic NAD^+. In anaerobic muscles, malate-aspartate and glycerol-phosphate shuttles as well as glutaminolysis are main metabolic pathways that recycle cytosolic NAD+to support glycolysis (FIG. 3A). […] With respect malate-aspartate shuttle and glutaminolysis, TDP-43 silencing led to reduced levels of OGC1 (oxoglutarate carrier 1), GOT1 (glutamic-oxaloacetic transaminase), MDH1 (malate dehydrogenase), and ME1 (malic enzyme), but increased levels of glutaminase (FIG. 3B). […] We have also analyzed intermediate metabolites of malate-aspartate shuttle and glutaminolysis, including glutamate (Glu), glutamine (Gln) and aspartate (Asp), by means of HPLC-MS and ^1H-NMR, and calculated the ratios Glu/Asp and Glu/Gln to estimate fluxes of these reactions. […] In this sense, an abnormal glutaminolysis may account for the defects of NAD^+ recycling in FUS-silenced myoblasts.\nWe next explored the consequences of pharmacological or genetic inhibition of FoxO on metabolism and myogenesis in TDP-43 and FUS-silenced myoblasts. We treated all the different models of myoblasts with the compound AS1842856 at 30 nM during proliferation and let them differentiate, adding the compound at the same concentration every 2 days for 8 days. […]"}, "[3]": {"tested_on": "TDP-43 or FUS-silenced human immortalized myoblasts (cell line 8220)", "assay": "Myogenic differentiation (MYHC-positive myotubes, differentiation index) of silenced myoblasts", "assay_type": "cell-based", "settings": "30 nM", "text": "We then studied the effect of gene silencing on the myogenic process. Myogenesis was first induced by an established protocol consisting on medium replacement, in which myoblasts were exposed to differentiation medium two days after infection with lentiviral particles. However, TDP-43 and FUS knockdown myoblasts were not able to survive to the differentiating challenge. Then, we switched to a more physiologically-relevant myogenic scenario that consists on allowing spontaneous differentiation and fusion when myoblasts reach 100% confluence. Lentiviral particles of scramble shRNA, shTDP-43 or shFUS were added to the medium when […] myoblasts were at 30-40% confluence (FIG. 1D).\n(§1) Myoblasts treated with control shRNA differentiated and formed MYHC-positive myotubes 2 days after reaching 100% confluence (FIG. 1I). However, TDP-43 and FUS knockdown affected the natural capacity of cultured myoblasts to fuse and form myotubes: shTDP-43-treated myoblasts remained undifferentiated for at least 2 days after reaching 100% confluence, and shFUS-treated myoblasts formed fewer myotubes (FIG. 1I). […] We then analyzed levels of MYOD and MYOG (Myogenin), two transcription factors that are required for myoblast commitment, differentiation and fusion, respectively.\nWe next explored the consequences of pharmacological or genetic inhibition of FoxO on metabolism and myogenesis in TDP-43 and FUS-silenced myoblasts. We treated all the different models of myoblasts with the compound AS1842856 at 30 nM during proliferation and let them differentiate, adding the compound at the same concentration every 2 days for 8 days. At the selected concentration, this compound binds selectively to the dephosphorylated FoxO1, and to less extent dephosphorylated FoxO3, interfering with DNA interaction and thereby resulting in inhibition of FoxO transactivation.\n(§2) In addition, treatment with the AS1842856 inhibitor modifies the expression of some of the FoxO-regulated genes that are crucial for proper myogenic differentiation."}, "MYOD": {"tested_on": "MYOD", "assay": "MYOD expression in silenced myoblasts", "assay_type": "cell-based, human", "settings": "30 nM; shTDP-43 and shFUS-treated myoblasts", "text": "as §1, §2"}}, "note": "Entries after “also recorded” stand apart in the source; their conditions may differ."}
{"smiles": "CCn1cc(C(=O)O)c(=O)c2c(N)c(F)c(NC3CCCCC3)cc21", "note": "[AS1842856]", "values": [{"measurement": "basal glycolysis rate (ECAR after glucose)", "setting": "primary ALS myoblasts", "result": "corrected; also recorded: improved the basal glycolysis rate"}, {"measurement": "locomotor impairments in climbing assay", "setting": "[1]", "result": "rescues; also recorded: fully rescue locomotor impairments"}, {"measurement": "Glu/Asp ratio", "setting": "[2]", "result": "increase Glu/Asp ratio to the levels of control myoblasts"}, {"measurement": "Glu/Gln ratio", "setting": "[2]", "result": "without affecting Glu/Gln ratio"}, {"measurement": "myogenic capacity (MYHC-positive myotubes, differentiation index)", "setting": "[3]; FUS-silenced myoblasts", "result": "improved the myogenic capacity"}, {"measurement": "myogenic capacity (MYHC-positive myotubes, differentiation index)", "setting": "[3]; TDP-43 silenced myoblasts", "result": "rescued the myogenic arrest"}, {"measurement": "myogenic capacity (MYHC-positive myotubes, differentiation index)", "setting": "[3]; control myoblasts", "result": "little effects"}, {"measurement": "expression of MYOD", "setting": "MYOD", "result": "increased the expression of MYOD"}]}
